The values that follow come from patent publication US12479820B2, “Pyridin-3-yl derivatives” (Idorsia Pharmaceuticals Ltd, priority 2019, dated 2025).

By IC50 is commonly meant the point on the concentration scale where inhibition reaches its midpoint.

The target in the assay is T1, human LPA1 receptor (Homo sapiens, UniProt Q92633).
T1 construct: TEV protease site; Gal4-VP16 transcription factor; host or cells: Tango EDG2-bla U2OS cells
T1 sequence (Q92633 whole entry, the tested form may be a part): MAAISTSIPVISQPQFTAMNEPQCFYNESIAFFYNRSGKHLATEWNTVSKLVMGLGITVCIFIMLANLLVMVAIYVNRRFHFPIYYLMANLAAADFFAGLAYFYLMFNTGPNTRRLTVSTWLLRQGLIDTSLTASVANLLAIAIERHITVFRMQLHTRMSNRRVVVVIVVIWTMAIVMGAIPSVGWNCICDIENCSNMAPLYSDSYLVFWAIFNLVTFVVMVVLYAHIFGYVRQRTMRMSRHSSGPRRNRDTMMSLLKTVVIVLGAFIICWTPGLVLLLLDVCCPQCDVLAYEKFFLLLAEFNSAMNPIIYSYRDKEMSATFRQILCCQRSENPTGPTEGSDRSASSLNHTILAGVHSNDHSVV
Briefly: Beta-arrestin recruitment assay to determine IC50 values for human LPAR1. The class given is cell-based. As to conditions: Tango EDG2-bla U2OS cells, antagonist assay, LPA 18:1 500 nM final. The source says: Beta-Arrestin Recruitment Assay to Determine IC50 Values for Human LPAR1
The Tango™ EDG2-bla U2OS cells are obtained from Invitrogen. These cells contain the human LPA1 receptor cDNA linked to a TEV protease site and a Gal4-VP16 transcription factor integrated into the Tango™ GPCR-bla U2OS parental cell line. This parental cell line stably expresses a beta-arrestin/TEV protease fusion protein and the beta-lactamase (bla) reporter gene under the control of a UAS response element. Upon LPA (agonist) binding, LPA1 receptor gets activated, leading to arrestin-protease recruitment and proteolytic release of the transcription factor: The transcription factor then regulates transcription of a beta-lactamase reporter construct, which is measured upon addition of the live-cell substrate.
10′000 Tango™ EDG2-bla U2OS cells are seeded in a 384-well black with clear bottom plate in 30 μl Freestyle 293 Expression Medium (Invitrogen) and incubated for 20 h at 37° C., 5% CO2. For antagonist assays, 5 μl of test compound (dilution series in DMSO/Freestyle 293 Expression medium/0.1% fatty acid free BSA (Sigma)) or buffer control are added per well and incubated for 30 min at 37° C., 5% CO2. 5 μl of LPA 18:1 (500 nM final) (solution in Freestyle 293 Expression medium/0.1% fatty acid free BSA (Sigma)) are added per well and the plate incubated for 16 h at 37° C., 5% CO2. Cells are then loaded with LiveBLAzer-FRET™ B/G Substrate (Invitrogen) for 2 h in the dark and the fluorescence emission at 460 nm and 530 nm is measured using the SynergyMx reader (BioTek). Following the background subtraction from both channels, the 460/530 nm emission ratio for each well is calculated, then plotted and fitted to a 4-parameter logistic function to obtain IC50 values. IC50 is the concentration of antagonist inhibiting 50% of the maximal response.
For orientation: Activated receptors often draw arrestin, which recruitment assays turn into a signal.
`COc1cc(Cl)ncc1NC(=O)C1(c2ccccc2C(C)C)CNC1` [Example 3, N-(6-chloro-4-methoxypyridin-3-yl)-3-(2-isopropylphenyl)azetidine-3-carboxamide]: the IC50 worked out at 4 nM.
Take `CCOc1cc(Cl)ncc1NC(=O)C1(c2ccccc2C(C)C)CN(C(=O)CC(C)(C)C(=O)OC)C1` [Example 19-21, methyl 4-(3-((6-chloro-4-ethoxypyridin-3-yl)carbamoyl)-3-(2-isopropylphenyl)azetidin-1-yl)-2,2-dimethyl-4-oxobutanoate]: the IC50 amounted to 72 nM.
In the case of `COc1cc(Cl)ncc1NC(=O)C1(c2ccccc2C(C)C)CN(C=O)C1` [Example 19-3, N-(6-chloro-4-methoxypyridin-3-yl)-1-formyl-3-(2-isopropylphenyl)azetidine-3-carboxamide] it was 9 nM; in that of `COc1cc(Cl)ncc1NC(=O)C1(c2ccccc2C(C)C)CN(C(=O)CS(C)(=O)=O)C1` [Example 19-16, N-(6-chloro-4-methoxypyridin-3-yl)-3-(2-isopropylphenyl)-1-(2-(methylsulfonyl)acetyl)azetidine-3-carboxamide], 54 nM; in that of `CCOc1cc(Cl)ncc1NC(=O)C1(c2ccccc2C(C)C)CN(CCC(C)(C)C(=O)OC)C1` [Example 18-18, methyl 4-(3-((6-chloro-4-ethoxypyridin-3-yl)carbamoyl)-3-(2-isopropylphenyl)azetidin-1-yl)-2,2-dimethylbutanoate], 142 nM.
Turning to `COc1ccncc1NC(=O)C1(c2ccccc2C(C)C)CNC1` [Example 2, 3-(2-isopropylphenyl)-N-(4-methoxypyridin-3-yl)azetidine-3-carboxamide], the IC50 is 74 nM.
For `COc1cc(Cl)ncc1NC(=O)C1(c2ccccc2C(C)C)CN(CCCc2nnn[nH]2)C1` [Example 18-5, 1-(3-(1H-tetrazol-5-yl)propyl)-N-(6-chloro-4-methoxypyridin-3-yl)-3-(2-isopropylphenyl)azetidine-3-carboxamide], the IC50 amounted to 347 nM.
With `CCOC(=O)C(C)(C)CCCN1CC(C(=O)Nc2cnc(Cl)cc2OCC)(c2ccccc2C(C)C)C1` [Example 18-26, ethyl 5-(3-((6-chloro-4-ethoxypyridin-3-yl)carbamoyl)-3-(2-isopropylphenyl)azetidin-1-yl)-2,2-dimethylpentanoate], the IC50 was 72 nM.
With `COc1cc(F)ncc1NC(=O)C1(c2ccccc2C(C)C)CN(S(N)(=O)=O)C1` [Example 21-1, N-(6-fluoro-4-methoxypyridin-3-yl)-3-(2-isopropylphenyl)-1-sulfamoylazetidine-3-carboxamide], the IC50 was 17 nM.
As for `COc1cc(Cl)ncc1NC(=O)C1(c2ccccc2C(C)C)CN(c2ncncc2F)C1` [Example 24-10, N-(6-chloro-4-methoxypyridin-3-yl)-1-(5-fluoropyrimidin-4-yl)-3-(2-isopropylphenyl)azetidine-3-carboxamide], the IC50 was 2 nM.
Consider `COc1cc(Cl)ncc1NC(=O)C1(c2ccccc2C(C)C)CN(C(=O)Cc2c[nH]nc2O)C1` [Example 19-12, N-(6-chloro-4-methoxypyridin-3-yl)-1-(2-(3-hydroxy-1H-pyrazol-4-yl)acetyl)-3-(2-isopropylphenyl)azetidine-3-carboxamide], for which the concentration for half-maximal inhibition (IC50) amounted to 24 nM.
For the compound `CCOc1cc(Cl)ncc1NC(=O)C1(c2ccccc2C(C)C)CN(C(=O)CC(C)(C)C(=O)O)C1` [Example 19-22, 4-(3-((6-chloro-4-ethoxypyridin-3-yl)carbamoyl)-3-(2-isopropylphenyl)azetidin-1-yl)-2,2-dimethyl-4-oxobutanoic acid], the IC50 worked out at 12 nM.
Take `COc1cc(Cl)ncc1NC(=O)C1(c2ccccc2C(C)C)CN(c2ccnc(C)c2)C1` [Example 24-5, N-(6-chloro-4-methoxypyridin-3-yl)-3-(2-isopropylphenyl)-1-(2-methylpyridin-4-yl)azetidine-3-carboxamide]: the half-inhibitory concentration (IC50) is 3 nM.
For `COc1cc(Cl)ncc1NC(=O)C1(c2ccccc2C(C)C)CN(CCNS(N)(=O)=O)C1` [Example 18-28, N-(6-chloro-4-methoxypyridin-3-yl)-3-(2-isopropylphenyl)-1-(2-(sulfamoylamino)ethyl)azetidine-3-carboxamide], the IC50 is 17 nM.
As for `COc1cc(Cl)ncc1NC(=O)C1(c2ccccc2C(C)C)CN(C(=O)Cn2cc(C)nn2)C1` [Example 19-8, N-(6-chloro-4-methoxypyridin-3-yl)-3-(2-isopropylphenyl)-1-(2-(4-methyl-1H-1,2,3-triazol-1-yl)acetyl)azetidine-3-carboxamide], the IC50 turned out to be 43 nM.
In the case of `COc1cc(Cl)ncc1NC(=O)C1(c2ccccc2C(C)C)CN(c2ccnc(C)c2F)C1` [Example 24-3, N-(6-chloro-4-methoxypyridin-3-yl)-1-(3-fluoro-2-methylpyridin-4-yl)-3-(2-isopropylphenyl)azetidine-3-carboxamide], the 50% inhibitory concentration (IC50) worked out at 2 nM.
`COc1cc(Cl)ncc1NC(=O)C1(c2ccccc2C(C)C)CN(C(=O)NCC(=O)O)C1` [Example 22-12, (3-((6-chloro-4-methoxypyridin-3-yl)carbamoyl)-3-(2-isopropylphenyl)azetidine-1-carbonyl)glycine]: the half-inhibitory concentration (IC50) was 431 nM.
In the case of `CCOC(=O)CNC(=O)N1CC(C(=O)Nc2cnc(Cl)cc2OC)(c2ccccc2C(C)C)C1` [Example 22-11, ethyl (3-((6-chloro-4-methoxypyridin-3-yl)carbamoyl)-3-(2-isopropylphenyl)azetidine-1-carbonyl)glycinate] it was 18 nM; in that of `COCCNS(=O)(=O)N1CC(C(=O)Nc2cnc(Cl)cc2OC)(c2ccccc2C(C)C)C1` [Example 21-20, N-(6-chloro-4-methoxypyridin-3-yl)-3-(2-isopropylphenyl)-1-(N-(2-methoxyethyl)sulfamoyl)azetidine-3-carboxamide], 73 nM; in that of `COc1cc(Cl)ncc1NC(=O)C1(c2c(F)cccc2C(C)C)CN(S(N)(=O)=O)C1` [Example 21-14, N-(6-chloro-4-methoxypyridin-3-yl)-3-(2-fluoro-6-isopropylphenyl)-1-sulfamoylazetidine-3-carboxamide], 4 nM.
With `CCNC(=O)N1CC(C(=O)Nc2cnc(Cl)cc2OC)(c2ccccc2C(C)C)C1` [Example 22-3, N3-(6-chloro-4-methoxypyridin-3-yl)-N1-ethyl-3-(2-isopropylphenyl)azetidine-1,3-dicarboxamide], the half-maximal inhibitory concentration (IC50) was found to be 6 nM.
In the case of `COc1cc(Cl)ncc1NC(=O)C1(c2ccccc2C(C)C)CN(C2=NC(=O)CO2)C1` [Example 26, N-(6-chloro-4-methoxypyridin-3-yl)-3-(2-isopropylphenyl)-1-(4-oxo-4,5-dihydrooxazol-2-yl)azetidine-3-carboxamide] it was 12 nM; in that of `COc1cc(Cl)ncc1NC(=O)C1(c2ccccc2C(C)C)CN(c2cc(F)ccn2)C1` [Example 24-7, N-(6-chloro-4-methoxypyridin-3-yl)-1-(4-fluoropyridin-2-yl)-3-(2-isopropylphenyl)azetidine-3-carboxamide], 1 nM.
For `COc1cc(Cl)ncc1NC(=O)C1(c2ccccc2C(C)C)CN(C(N)=O)C1` [Example 22-1, N3-(6-chloro-4-methoxypyridin-3-yl)-3-(2-isopropylphenyl)azetidine-1,3-dicarboxamide], the half-inhibitory concentration (IC50) amounted to 22 nM.
On to `COc1cc(Br)ncc1NC(=O)C1(c2ccccc2C(C)C)CNC1` [Example 4, N-(6-bromo-4-methoxypyridin-3-yl)-3-(2-isopropylphenyl)azetidine-3-carboxamide], for which the half-inhibitory concentration (IC50) was 6 nM.
In the case of `COc1cc(Cl)ncc1NC(=O)C1(c2ccccc2C(C)C)CN(S(=O)(=O)C2COC2)C1` [Example 20-5, N-(6-chloro-4-methoxypyridin-3-yl)-3-(2-isopropylphenyl)-1-(oxetan-3-ylsulfonyl)azetidine-3-carboxamide] it was 34 nM; in that of `COc1cc(Cl)ncc1NC(=O)C1(c2nc(F)ccc2C(C)C)CN(S(N)(=O)=O)C1` [Example 21-17, N-(6-chloro-4-methoxypyridin-3-yl)-3-(6-fluoro-3-isopropylpyridin-2-yl)-1-sulfamoylazetidine-3-carboxamide], 16 nM; in that of `COc1cc(Cl)ncc1NC(=O)C1(c2ccccc2C(C)C)CN(C(C)=O)C1` [Example 19-2, 1-acetyl-N-(6-chloro-4-methoxypyridin-3-yl)-3-(2-isopropylphenyl)azetidine-3-carboxamide], 19 nM.
Regarding `COc1cc(Cl)ncc1NC(=O)C1(c2ccccc2C(C)C)CN(c2cc(C)ncc2F)C1` [Example 24-4, N-(6-chloro-4-methoxypyridin-3-yl)-1-(5-fluoro-2-methylpyridin-4-yl)-3-(2-isopropylphenyl)azetidine-3-carboxamide], the IC50 worked out at 2 nM.
